Source: ChEMBL document CHEMBL5390218, “Benzimidazole derivatives as tubulin polymerization inhibitors: Design, synthesis and in vitro cytotoxicity studies” (Bioorg Med Chem Lett, 2023)
Calls of active or inactive are those of the source. No cut-off for these calls is given here.

Assays:
HCT-116 = test: Anticancer activity against human HCT-116 cells assessed as inhibition in cell growth measured after 72 hrs by MTT assay; assay type: functional, cell-based; conditions: HCT-116, 72 h
B16-F10 = test: Anticancer activity against mouse B16-F10 cells assessed as inhibition in cell growth measured after 72 hrs by MTT assay; assay type: functional, cell-based; conditions: B16-F10, 72 h
A549 = test: Anticancer activity against human A549 cells assessed as inhibition in cell growth measured after 72 hrs by MTT assay; assay type: functional, cell-based; conditions: A549, 72 h
SK-MEL-28 [1] = test: Anticancer activity against human SK-MEL-28 cells assessed as inhibition in cell growth measured after 72 hrs by MTT assay; assay type: functional, cell-based; conditions: SK-MEL-28, 72 h
MCF7 = test: Anticancer activity against human MCF7 cells assessed as inhibition in cell growth measured after 72 hrs by MTT assay; assay type: functional, cell-based; conditions: MCF7, 72 h
[2] = Cytotoxicity against NRK-52E cells assessed as inhibition in cell growth measured after 72 hrs by MTT assay; assay type: toxicity, cell-based; conditions: rat
[3] = Selectivity index, ratio of IC50 for NRK-52E cells to ratio of IC50 for mouse B16-F10 cells; assay type: toxicity; conditions: NRK-52E cells versus B16-F10 cells, read-out: Selectivity Index
[4] = Selectivity index, ratio of IC50 for NRK-52E cells to ratio of IC50 for human HCT-116 cells; assay type: toxicity; conditions: rat (NRK-52E), NRK-52E cells versus HCT-116 cells, read-out: Selectivity Index
[5] = Selectivity index, ratio of IC50 for NRK-52E cells to ratio of IC50 for human A549 cells; assay type: toxicity; conditions: rat (NRK-52E), NRK-52E cells versus A549 cells, read-out: Selectivity Index
[6] = Selectivity index, ratio of IC50 for NRK-52E cells to ratio of IC50 for human SK-MEL-28 cells
[7] = Selectivity index, ratio of IC50 for NRK-52E cells to ratio of IC50 for human MCF7 cells; assay type: toxicity; conditions: rat (NRK-52E), NRK-52E cells versus MCF7 cells, read-out: Selectivity Index
SK-MEL-28 [8] = test: Induction of ROS generation in human SK-MEL-28 cells by DCFDA staining based analysis; assay type: functional, cell-based; conditions: dose 1-5 µM
SK-MEL-28 [9] = test: Inhibition of cell migration in human SK-MEL-28 cells at 1 to 5 uM incubated for 0 to 48 hrs by wound healing assay; assay type: functional, cell-based; conditions: dose 1-5 µM, time 0-48 hrs
SK-MEL-28 [10] = test: Inhibition of cell migration in human SK-MEL-28 cells at 1 to 5 uM incubated for 0 to 48 hrs by phase-contrast microscopy; assay type: functional, cell-based; conditions: dose 1-5 µM, time 0-48 hrs
SK-MEL-28 [11] = test: Inhibition of colony formation in human SK-MEL-28 cells incubated for 48 hrs by crystal violet staining based colony formation assay; assay type: functional, cell-based; conditions: dose 1-5 µM
SK-MEL-28 [12] = test: Induction of morphological changes in human SK-MEL-28 cells assessed as cell shrinkage by ethidium bromide/acridine orange staining based analysis; assay type: functional; conditions: dose 1-5 µM
SK-MEL-28 [13] = test: Induction of morphological changes in human SK-MEL-28 cells assessed as membrane blebbing by ethidium bromide/acridine orange staining based analysis; assay type: functional, cell-based; conditions: dose 1-5 µM
SK-MEL-28 [14] = test: Induction of morphological changes in human SK-MEL-28 cells assessed as chromatin condensation by ethidium bromide/acridine orange staining based analysis; assay type: functional, cell-based; conditions: dose 1-5 µM
SK-MEL-28 [15] = test: Induction of morphological changes in human SK-MEL-28 cells assessed as production of apoptotic bodies by ethidium bromide/acridine orange staining based analysis; assay type: functional, cell-based; conditions: dose 1-5 µM
SK-MEL-28 [16] = test: Induction of morphological changes in human SK-MEL-28 cells assessed as nuclear shrinkage at 1 to 5 uM measured after 48 hrs DAPI staining based analysis; assay type: functional, cell-based; conditions: dose 1-5 µM
SK-MEL-28 [17] = test: Induction of morphological changes in human SK-MEL-28 cells assessed as bright pyknotic nuclei at 1 to 5 uM measured after 48 hrs DAPI staining based analysis; assay type: functional, cell-based; conditions: dose 1-5 µM
SK-MEL-28 [18] = test: Induction of morphological changes in human SK-MEL-28 cells assessed as bright fragmented nuclei at 1 to 5 uM measured after 48 hrs DAPI staining based analysis; assay type: functional, cell-based; conditions: dose 1-5 µM
SK-MEL-28 [19] = test: Induction of morphological changes in human SK-MEL-28 cells assessed as chromatin condensation at 1 to 5 uM measured after 48 hrs DAPI staining based analysis; assay type: functional, cell-based; conditions: dose 1-5 µM
SK-MEL-28 [20] = test: Induction of morphological changes in human SK-MEL-28 cells assessed as appearance of nuclei at 1 to 5 uM measured after 48 hrs DAPI staining based analysis; assay type: functional, cell-based; conditions: dose 1-5 µM

Row | IC50 (HCT-116) [µM] | IC50 (B16-F10) [µM] | IC50 (A549) [µM] | IC50 (SK-MEL-28 [1]) [µM] | IC50 (MCF7) [µM] | SMILES | IC50 at 72 h [2] [µM] | further results
1 | 7.9 | 4.96 | 8.12 | 2.95 | 11 | COc1ccc2[nH]c(-c3ccc(OCC(=O)N4CCc5ccccc5C4)c(OC)c3)nc2c1 | 20.5 | 
2 | > 20 | > 20 | > 20 | > 20 | > 20 | COc1cc(-c2nc3cc(F)ccc3[nH]2)ccc1OCC(=O)N1CCOCC1 | > 100 | 
3 | > 20 | > 20 | > 20 | > 20 | > 20 | COc1cc(-c2nc3cc(C)ccc3[nH]2)ccc1OCC(=O)N1CCCCC1 | > 100 | 
4 | > 20 | > 20 | > 20 | > 20 | > 20 | COc1cc(-c2nc3cc(C)ccc3[nH]2)ccc1OCC(=O)N1CCCC1 | > 100 | 
5 | > 20 | > 20 | > 20 | > 20 | > 20 | COc1ccc2[nH]c(-c3ccc(OCC(=O)N4CCOCC4)c(OC)c3)nc2c1 | > 100 | 
6 | > 20 | > 20 | > 20 | > 20 | > 20 | COc1cc(-c2nc3cc(F)ccc3[nH]2)ccc1OCC(=O)N1CCN(C(=O)OC(C)(C)C)CC1 | > 100 | 
7 | 6.04 | 4.76 | 5.5 | 2.55 | 5.9 | COc1cc(-c2nc3cc(C)ccc3[nH]2)ccc1OCC(=O)N1CCc2ccccc2C1 | 51.9 | selectivity ratio [3]: 10.9; selectivity ratio [4]: 8.6; selectivity ratio [5]: 9.4; Selectivity Index [6]: 20.3; selectivity ratio [7]: 8.8; Activity (SK-MEL-28 [8]): Dose-Dependent Effect; inhibition (SK-MEL-28 [9]): Active; inhibition (SK-MEL-28 [10]): Active; inhibition (SK-MEL-28 [11]): Dose-Dependent Effect; Activity (SK-MEL-28 [12]): Dose-Dependent Effect; Activity (SK-MEL-28 [13]): Dose-Dependent Effect; Activity (SK-MEL-28 [14]): Dose-Dependent Effect; Activity (SK-MEL-28 [15]): Dose-Dependent Effect; Activity (SK-MEL-28 [16]): Active; Activity (SK-MEL-28 [17]): Active; Activity (SK-MEL-28 [18]): Active; Activity (SK-MEL-28 [19]): Active; Activity (SK-MEL-28 [20]): Active
8 | 10.1 | > 20 | > 20 | 8.59 | 14.7 | COc1cc(-c2nc3cc(F)ccc3[nH]2)ccc1OCC(=O)N1CCc2ccccc2C1 | > 100 | 
9 | > 20 | > 20 | > 20 | 12.2 | > 20 | COc1cc(-c2nc3ccccc3[nH]2)ccc1OCC(=O)N1CCN(c2ncccn2)CC1 | > 100 | 
10 | > 20 | 16.1 | 14 | 7.71 | > 20 | COc1cc(-c2nc3cc(F)ccc3[nH]2)ccc1OCC(=O)N1CCN(c2ncccn2)CC1 | > 100 | 
11 | > 20 | > 20 | > 20 | > 20 | > 20 | COc1cc(-c2nc3ccccc3[nH]2)ccc1OCC(=O)N1CCCC1 | > 100 | 
12 | > 20 | 15.6 | 6.89 | > 20 | > 20 | COc1cc(-c2nc3cc(C)ccc3[nH]2)ccc1OCC(=O)N1CCc2ccccc21 | > 100 | 
13 | > 20 | > 20 | > 20 | > 20 | > 20 | COc1cc(-c2nc3cc(C)ccc3[nH]2)ccc1OCC(=O)N1CCOCC1 | > 100 | 
14 | > 20 | > 20 | > 20 | > 20 | > 20 | COc1ccc2[nH]c(-c3ccc(OCC(=O)N4CCCC4)c(OC)c3)nc2c1 | > 100 | 
15 | > 20 | > 20 | > 20 | > 20 | > 20 | COc1cc(-c2nc3ccccc3[nH]2)ccc1OCC(=O)N1CCCCC1 | > 100 | 
16 | > 20 | 12.5 | 8.35 | 6.13 | > 20 | COc1ccc2[nH]c(-c3ccc(OCC(=O)N4CCN(c5ncccn5)CC4)c(OC)c3)nc2c1 | > 100 | 
17 | > 20 | > 20 | > 20 | > 20 | > 20 | COc1ccc2[nH]c(-c3ccc(OCC(=O)N4CCN(C(=O)OC(C)(C)C)CC4)c(OC)c3)nc2c1 | > 100 | 
18 | 8.39 | 12.6 | 8.05 | 3.32 | 7.78 | COc1ccc2[nH]c(-c3ccc(OCC(=O)N4CCc5ccccc54)c(OC)c3)nc2c1 | > 100 | 
19 | > 20 | > 20 | > 20 | > 20 | > 20 | COc1cc(-c2nc3ccccc3[nH]2)ccc1OCC(=O)N1CCc2ccccc2C1 | > 100 | 
20 | > 20 | > 20 | > 20 | > 20 | > 20 | COc1cc(-c2nc3cc(F)ccc3[nH]2)ccc1OCC(=O)N1CCCCC1 | > 100 | 
21 | > 20 | > 20 | > 20 | 3.82 | 7.68 | COc1cc(-c2nc3ccccc3[nH]2)ccc1OCC(=O)N1CCc2ccccc21 | > 100 | 
22 | > 20 | > 20 | > 20 | > 20 | > 20 | COc1cc(-c2nc3ccccc3[nH]2)ccc1OCC(=O)N1CCOCC1 | > 100 | 
23 | > 20 | > 20 | > 20 | > 20 | > 20 | COc1ccc2[nH]c(-c3ccc(OCC(=O)N4CCCCC4)c(OC)c3)nc2c1 | > 100 | 
24 | > 20 | > 20 | > 20 | > 20 | > 20 | COc1cc(-c2nc3cc(F)ccc3[nH]2)ccc1OCC(=O)N1CCCC1 | > 100 | 
25 | 4.7 | 8.53 | 7.93 | 5.42 | 11.8 | COc1cc(-c2nc3cc(C)ccc3[nH]2)ccc1OCC(=O)N1CCN(c2ncccn2)CC1 | > 100 | 
26 | > 20 | > 20 | > 20 | > 20 | > 20 | COc1cc(-c2nc3ccccc3[nH]2)ccc1OCC(=O)N1CCN(C(=O)OC(C)(C)C)CC1 | > 100 | 

Row | SMILES | IC50 (HCT-116) [µM] | IC50 (B16-F10) [µM] | IC50 (A549) [µM] | IC50 (SK-MEL-28 [1]) [µM] | IC50 (MCF7) [µM] | IC50 at 72 h [2] [µM] | further results
27 | COC(=O)Nc1nc2cc(C(=O)c3cccs3)ccc2[nH]1 [NOCODAZOLE] | 3.5 | 8.58 | 5.93 | 8.59 | 4.13 |  | 
